From patent US20110059970A1, “4-PHENYL-1,3-THIAZOLES AND 4-PHENYL-1,3-OXAZOLES DERIVATIVES AS CANNABINOID RECEPTOR LIGANDS” (IPSEN PHARMA S.A.S., priority 2007, published 2011) come the findings set out here.

pKi: −log10 of the molar value. Counter-ions that a name gives are not always drawn.

T1 sequence (P34972 whole entry): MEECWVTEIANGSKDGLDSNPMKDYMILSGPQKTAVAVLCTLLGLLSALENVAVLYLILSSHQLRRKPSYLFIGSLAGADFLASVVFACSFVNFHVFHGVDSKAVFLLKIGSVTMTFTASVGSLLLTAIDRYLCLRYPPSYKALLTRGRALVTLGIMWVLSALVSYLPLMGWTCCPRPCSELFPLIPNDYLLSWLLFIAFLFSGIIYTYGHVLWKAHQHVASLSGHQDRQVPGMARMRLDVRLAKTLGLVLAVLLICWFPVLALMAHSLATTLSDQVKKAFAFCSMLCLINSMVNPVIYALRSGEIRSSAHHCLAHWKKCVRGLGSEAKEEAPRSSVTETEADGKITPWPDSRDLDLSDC

One series has as its target T1, human CB2 receptors (Homo sapiens, UniProt P34972).
T1 construct: expressed in transfected cells; membranes prepared from them
Put plainly: Affinity for human CB2 receptors: inhibition of [3H]-CP55940 binding to membranes of transfected CHO-K1 cells. The note with it: [3H]-CP55940 (1 nM) competition, CHO-K1 membranes; IC50 converted to Ki by Cheng-Prusoff; read-out: affinity for the CB2 receptor. How it is done:
Study of the Affinity of the Compounds for Human Cannabinoid CB2 Receptors
The affinity of the compounds of the invention for human CB2 receptors was determined by measuring inhibition of [^3H]-CP55940 binding to membrane preparations produced from transfected CHO-K1 cells.
CHO-K1 cells stably expressing human CB2 receptors were cultured in RPMI 1640 medium supplemented with 10% foetal calf serum, 2 mM glutamine, 100 U/ml penicillin, 0.1 mg/ml streptomycin and 0.5 mg/ml G418. The cells were collected using 0.5 mM EDTA and centrifuged at 500 g for 5 min at 4° C. The cell pellet was resuspended in phosphate buffered saline (PBS) and centrifuged at 500 g for 5 min at 4° C. The pellet was resuspended in 50 mM tris buffer pH 7.4 and centrifuged at 500 g for 5 min at 4° C. The cells were lysed by sonication and centrifuged at 39,000 g for 10 min at 4° C. The pellet was resuspended in 50 mM tris buffer pH 7.4 and centrifuged at 50,000 g for 10 min at 4° C. The membranes obtained in this final pellet were stored at −80° C.
Competitive inhibition of the binding of [^3H]-CP55940 to CB2 receptors was determined in duplicate in 96-well polypropylene plates. Cell membranes (10 μg of protein/well) were incubated with [^3H]-CP55940 (1 nM) for 60 min at 25° C. in 50 mM Tris-HCl buffer, pH 7.4, containing 0.1% bovine serum albumin (BSA), 5 mM MgCl2, and 50 μg/ml of bacitracin.
Bound [^3H]-CP55940 was separated from free [^3H]-CP55940 by filtration through GF/C fibre glass filter plates (Unifilter, Packard) pre-impregnated with 0.1% polyethylenimine (P.E.I.), using a Filtermate 196 (Packard). The filters were washed with 50 mM Tris-HCl buffer, pH 7.4 at 0-4° C. and the radioactivity present was determined using a counter (Packard Top Count).
Specific binding was obtained by subtracting non-specific binding (determined in the presence of 0.1 μM WIN55212-2) from total binding. The data were analysed by computer-assisted nonlinear regression (MDL). For each test, the IC50 value was converted to a Ki value (inhibition constant) using the Cheng-Prusoff equation.
where [L] is the concentration of the radioligand used in the assay and Kd is the dissociation constant of the radioligand at equilibrium.
As to `CC(C)(C)c1cc(-c2csc(C3(N)CCSCC3)n2)cc(C(C)(C)C)c1O` [Example 5, 4-[2-(4-aminotetrahydro-2H-thiopyran-4-yl)-1,3-thiazol-4-yl]-2,6-di-tert-butylphenol], the pKi was 6.00 to 6.30.

Test system in the next series: not given
Experiment: not given
Conditions: not given
Broadly, the melting point is the temperature of the solid-liquid transition. For `COc1c(Cl)cc(-c2csc(C3(N(C)C)CCOCC3)n2)cc1C(C)(C)C` (as salt: hydrochloride) [Example 13, {4-[4-(3-tert-butyl-5-chloro-4-methoxyphenyl)-1,3-thiazol-2-yl]tetrahydro-2H-pyran-4-yl}dimethylamine hydrochloride], the melting point lay within 219.7 to 222.2 °C. Still for that read-out and setting: in the case of `CN(C)C1(c2nc(-c3ccc(Oc4cccc(Cl)c4C#N)cc3)cs2)CCOCC1` (as salt: hydrochloride) it was 127 to 130 °C; in that of `COc1ccc(Oc2ccc(-c3csc(C4(N(C)C)CCOCC4)n3)cc2)cc1` (as salt: hydrochloride), 120 to 121 °C. The same measure, in the same setting: for `CN1CCC(c2nc(-c3cc(C(C)(C)C)c(O)c(C(C)(C)C)c3)cs2)(N(C)C)CC1` (as salt: hydrochloride) [Example 23, 2,6-di-tert-butyl-4-{2-[4-(dimethylamino)-1-methylpiperidin-4-yl]-1,3-thiazol-4-yl}phenol hydrochloride] the value was 236 to 238 °C. The same measure, in the same setting: for `CC(C)(C)c1cc(-c2csc(C3(N)CCSCC3)n2)cc(C(C)(C)C)c1O` [Example 5, 4-[2-(4-aminotetrahydro-2H-thiopyran-4-yl)-1,3-thiazol-4-yl]-2,6-di-tert-butylphenol] the value was 148.8 to 150.8 °C. Compound `CN(C)C1(c2nc(-c3ccc(Oc4ccc([N+](=O)[O-])cc4)cc3)cs2)CCOCC1` (as salt: hydrochloride) [Example 32, N,N-dimethyl-4-{4-[4-(4-nitrophenoxy)phenyl]-1,3-thiazol-2-yl}tetrahydro-2H-pyran-4-amine hydrochloride] came in with a melting point of 167 to 169 °C. Regarding `COc1ccc(-c2csc(C3(N(C)C)CCOCC3)n2)cc1C(C)(C)C` (as salt: hydrochloride) [Example 14, {4-[4-(3-tert-butyl-4-methoxyphenyl)-1,3-thiazol-2-yl]tetrahydro-2H-pyran-4-yl}dimethylamine hydrochloride], the melting point was 232.7 to 233.5 °C.

`COc1c(C)cc(-c2csc(C3(N(C)C)CCOCC3)n2)cc1C` (as salt: hydrochloride) returned a melting point of 237.5 to 239 °C. Compound `COc1c(C(C)(C)C)cc(-c2csc(C3(N(C)C)CCOCC3)n2)cc1C(C)(C)C` (as salt: hydrochloride) [Example 2, {4-[4-(3,5-di-tert-butyl-4-methoxyphenyl)-1,3-thiazol-2-yl]tetrahydro-2H-pyran-4-yl}dimethylamine hydrochloride] gave a melting point of 215 to 216.7 °C.

In turn, `COc1c(-c2csc(C3(N(C)C)CCOCC3)n2)cc(C(C)(C)C)cc1C(C)(C)C` (as salt: hydrochloride) came in with a melting point of 199.4 to 200.7 °C.
